Measurements: ChEMBL document CHEMBL4190390, “Rational Design of Novel 1,3-Oxazine Based β-Secretase (BACE1) Inhibitors: Incorporation of a Double Bond To Reduce P-gp Efflux Leading to Robust Aβ Reduction in the Brain” (J Med Chem, 2018)

Experiments:
[1] = Dissociation constant, pKa of the compound by capillary electrophoresis method; type: physicochemical
[2] = Drug degradation of the compound at 40 degC/89 % relative humidity; type: physicochemical; settings: read-out: Drug degradation

Row | pKa [1] | degraded [2] [%] | SMILES
1 | 9.8 |  | C[C@@]1(c2ccccc2F)CCOC(N)=N1
2 |  | 0.06 | C[C@@]1(c2cc(NC(=O)c3ccc(C#N)cn3)ccc2F)C=C(CF)OC(N)=N1
